Test [1] deals with platelet aggregation stimulated by thrombin (gel-filtered platelets). Description: In vitro inhibition of thrombin-induced gel-filtered platelet aggregation. It counts as cell-based, Human. The settings on record: agonist thrombin; for IC50: read-out: GFP Aggr. IC50 (μM), Thr; for inhibition at 50 µM: Homo sapiens, Platelet, read-out: GFP Aggr. % Inhibition, Thr. On the procedure: (§1) In Vitro Inhibition of Thrombin-Induced Gel-Filtered Platelet Aggregation Assay
(§2) The percentage of platelet aggregation is calculated as an increase in light transmission of compound-treated platelet concentrate vs. control-treated platelet concentrate. Human blood is obtained from drug free, normal donors in tubes containing 0.13 M sodium citrate. Platelet rich plasma (PRP) is collected by centrifugation of whole blood at 200×g for 10 min at 25° C. The PRP (5 mL) is gel filtered through Sepharose 2B (bed volume 50 mL), and the platelet count is adjusted to 2×10^7 platelets per sample. The following constituents are added to a siliconized cuvette: concentrated platelet filtrate and Tyrode's buffer (0.14 M NaCl, 0.0027 M KCl, 0.012 M NaHCO3, 0.76 mM Na2HPO4, 0.0055 M glucose, 2 mg/mL BSA and 5.0 mM HEPES@pH 7.4) in an amount equal to 350 μL, 50 μL of 20 mM calcium and 50 μL of the test compound. Aggregation is monitored in a BIODATA aggregometer for the 3 min following the addition of agonist (thrombin 50 μL of 1 unit/mL).
(§3) Table 5 contains IC50 values (μM) or % inhibition@50 μM of the compounds against platelet aggregation stimulated (GFP Aggr.) by thrombin or TRAP-6 (Thr or TRAP-6) and IC50 values (μM) in a thrombin receptor (PAR-1) binding assay (Binding). The compounds of Table 5 correspond to those shown on Table 4.

For test [2], the system named is platelet aggregation stimulated by TRAP-6 (gel-filtered platelets). Nature of the test: In vitro inhibition of TRAP-6-induced gel-filtered platelet aggregation. It counts as cell-based, Human. The conditions noted are these: for IC50: agonist TRAP-6, read-out: GFP Aggr. IC50 (μM), TRAP-6; for inhibition at 50 µM: read-out: GFP Aggr. % Inhibition, TRAP-6. How it is done: as §1, §2, §3

Test [3] deals with T1, thrombin receptor (PAR-1) (Homo sapiens, UniProt P25116).
T1 construct: CHRF membranes (Jones, Biochim. Biophys. Acta 1992, 1136, 272) are thawed from −70° C; endogenous in cells; the full cell line name is own knowledge
T1 sequence (P25116 22-425): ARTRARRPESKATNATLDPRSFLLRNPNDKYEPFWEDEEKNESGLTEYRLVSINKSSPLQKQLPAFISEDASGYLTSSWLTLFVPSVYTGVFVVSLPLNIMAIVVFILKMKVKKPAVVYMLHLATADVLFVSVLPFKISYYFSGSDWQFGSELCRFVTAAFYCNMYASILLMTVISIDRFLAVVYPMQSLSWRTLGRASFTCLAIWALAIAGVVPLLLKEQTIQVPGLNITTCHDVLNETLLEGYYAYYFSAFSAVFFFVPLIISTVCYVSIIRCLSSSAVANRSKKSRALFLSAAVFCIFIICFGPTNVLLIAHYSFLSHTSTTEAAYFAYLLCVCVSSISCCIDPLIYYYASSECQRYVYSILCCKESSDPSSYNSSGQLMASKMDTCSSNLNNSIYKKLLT
Description: In vitro thrombin receptor binding assay (CHRF membranes, tritiated 721-40). The conditions noted are these: thrombin receptor (PAR-1) binding, read-out: Binding IC50 (μM), Thr. On the procedure: In Vitro Thrombin Receptor Binding Assay
CHRF membranes (Jones, Biochim. Biophys. Acta 1992, 1136, 272) are thawed from −70° C., centrifuged at maximum speed for 5 min, washed twice with binding buffer (50 mM HEPES containing 5 mM MgCl2 and 0.1% BSA), and re-suspended in binding buffer (25 μg/[…]). 100 μL of membranes are added to the 24-Wallac plates and delivered to the Tomtech apparatus. In a typical experiment, 6 μL of samples (from a 125 μg/mL intermediary plate, 20% DMSO) and 44 μL buffer are delivered to the plates (final conc. of compounds is 3.7 μg/mL, 0.6% DMSO). Similarly, 6 μL 20% DMSO and 44 μL buffer are delivered to both column 1 (NSB) and column 12 (TB). 10 μL Ser-pFPhe-hArg-Leu-hArg-Lys-Tyr-NH2 (721-40; 500 μM in deionized water) is added to column 1.50 μL tritiated 721-40 (specific activity 46 Ci/mmol) is added to all the wells. The plates are mixed well for 20 seconds, incubated for 30 min, and then harvested with 10 mM HEPES/138 mM NaCl using the Skatron harvester. The filters (GF/C Brandel FPXLR 296) are presoaked 3 h in 0.5% polyethylenimine in HEPES/0.1M N-acetylglucosamine) are set in saran wrap and dried for 3 min in the microwave, and placed in sample bags (Wallac 1450-432). 4.5 mL scintillation fluid (Wallac, Betaplate Scint 1205-440) is added. The bags are sealed, placed in filter cassettes (Wallac 1450-104), and analyzed on the microbeta counter. […]

[4] abbreviates: Homo sapiens, Platelet, agonist TRAP-6, % inhibition @ 50 μM.

Read-outs that look alike come from different tables or passages of the source.

The term IC50 denotes the concentration at which inhibition is half-maximal. Consider `CN(C)Cc1cn(Cc2c(Cl)cccc2Cl)c2ccc3nc(N[C@@H](Cc4ccccc4)C(=O)N[C@@H](CCN)C(=O)NCc4ccccc4)nc(N)c3c12` [Compound 2, α-[[1-amino-7-[(2,6-dichlorophenyl)methyl]-9-[(dimethylamino)methyl]-7H-pyrrolo[3,2-f]quinazolin-3-yl]amino]-N-[(1S)-3-amino-1-[[(phenylmethyl)amino]carbonyl]propyl]-(α^1S)-benzenepropanamide], for which the values for the IC50 in test [1] and in test [2] were 13 µM and 3 µM, respectively.

For orientation: inhibition means the relative decrease from the control value, in per cent. Turning to `CN(C)Cc1cn(Cc2c(Cl)cccc2Cl)c2ccc3nc(N(C)C)nc(N)c3c12` [Compound 3, 7-[(2,6-dichlorophenyl)methyl]-9-[(dimethylamino)methyl]-N^3,N^3-dimethyl-7H-pyrrolo[3,2-f]quinazoline-1,3-diamine], the results for the inhibition at 50 µM in test [1] (% inhibition @ 50 μM) and in test [2] (setting [4]) were 27% and 40%, respectively.

Consider `CN(C)Cc1cn(Cc2c(Cl)cccc2Cl)c2ccc3nc(NC4CC4)ncc3c12` [Compound 4, 3-(cyclopropylamino)-7-[(2,6-dichlorophenyl)methyl]-N,N-dimethyl-7H-pyrrolo[3,2-f]quinazoline-9-methanamine], for which the inhibition at 50 µM in test [1] (% inhibition @ 50 μM) was 30%; in test [2] (setting [4]), 20%.

Take `Nc1nc(Cl)nc2ccc3c(c(CN4CCCC4)cn3Cc3c(Cl)cccc3Cl)c12` [Compound 5, 3-chloro-7-[(2,6-dichlorophenyl)methyl]-9-(1-pyrrolidinylmethyl)-7H-pyrrolo[3,2-f]quinazolin-1-amine]: the “GFP Aggr. % Inhibition, Thr” value in test [1] (% inhibition @ 50 μM) turned out to be 16%. In test [2] (agonist TRAP-6, % inhibition @ 50 μM), the “GFP Aggr. % Inhibition, TRAP-6” value is 32%.

For the molecule `COc1nc(Cl)nc2ccc3c(c(CN(C)C)cn3Cc3c(Cl)cccc3Cl)c12` [Compound 6, 3-chloro-7-[(2,6-dichlorophenyl)methyl]-1-methoxy-N,N-dimethyl-7H-pyrrolo[3,2-f]quinazoline-9-methanamine], the inhibition at 50 µM in test [1] (% inhibition @ 50 μM) stood at 40%. The IC50 in test [2] (Homo sapiens, Platelet) was 31 µM.

`CN(C)Cc1cn(Cc2c(Cl)cccc2Cl)c2ccc3nc(Cl)nc(N)c3c12` [Compound 7, 1-amino-3-chloro-7-[(2,6-dichlorophenyl)methyl]-N,N-dimethyl-7H-pyrrolo[3,2-f]quinazoline-9-methanamine]: the inhibition at 50 µM in test [1] (% inhibition @ 50 μM) turned out to be 14%; in test [2] (setting [4]), 3%.

As to “N^3-cyclopropyl-7-[(2,6-dichlorophenyl)methyl]-9-[(dimethylamino)methyl]-7H-pyrrolo[3,2-f]quinazoline-1,3-diamine [Compound 1]”, the figures for the IC50 in test [1], in test [2] and in test [3] were 21 µM, 13 µM and 9.6 µM, respectively.

The values above are taken from US6740657B2, “Aminomethyl-pyrroloquinazoline compounds as thrombin receptor antagonists” (Ortho-McNeil Pharmaceutical, Inc., priority 2001, dated 2004).
